Target: T1, mitochondrial complex I (Bos taurus, UniProt P03887+P17694+P25708+P42026)
T1 construct: gene MT-ND1; native complex immunocaptured from solubilized bovine heart mitochondria
Assay: NADH oxidation, […] nm, immunocaptured complex
Format: biochemical
Details: ubiquinone 1, phospholipids, room temperature

| SMILES | % activity relative to vehicle at 50 μM [%] |
| --- | --- |
| Cc1nc(-c2ccc(-c3ccc(C(=O)N4CCc5cc6c(cc54)C4(CCN(C)CC4)CO6)cc3)c(C)c2)no1 [SB-224289] | 60 |
| CO/C(=C/C(N)=O)[C@H](C)[C@H](/C=C/c1csc(-c2csc([C@@H](C)/C=C/C=C/C(C)C)n2)n1)OC [myxothiazole] | 48 |

Source: article PMC10967832, “Cloflucarban Illuminates Specificity and Context-Dependent Activation of the PINK1–Parkin Pathway by Mitochondrial Complex Inhibition” (Biomolecules, 2024)
